Test results taken from the NIST ThermoML archive (doi:10.1016/j.jct.2008.05.014).

Legend:
[1] = xn = mol fraction of the nth substance listed; conditions: Liquid, x1 = 1; for speed of sound: Pulse-echo method
[2] = Liquid; for speed of sound: Pulse-echo method
[3] = refractive index (Na D-line) (dimensionless); conditions: 298.15 K; 101.33 kPa; Liquid; Standard Abbe refractometry

CCCCCCC [heptane] + CCCCCCCCCCCC
[1]
Conditions	mass density [kg/m3]	speed of sound [m/s]
292.83 K, 101 kPa	–	1153.2
292.88 K, 45590 kPa	–	1417.7
292.88 K, 60790 kPa	–	1485.5
292.88 K, 75990 kPa	–	1547.2
292.88 K, 91180 kPa	–	1605
292.88 K, 101320 kPa	–	1641.2
292.89 K, 15200 kPa	–	1257
292.89 K, 30390 kPa	–	1342.4
293.15 K, 101 kPa	683.803	–
298.12 K, 101 kPa	–	1130.1
298.15 K, 101 kPa	679.548	–
298.15 K, 15200 kPa	–	1236.7
298.15 K, 30390 kPa	–	1323.7
298.15 K, 45590 kPa	–	1400.1
298.15 K, 60790 kPa	–	1469.1
298.15 K, 91180 kPa	–	1589.7
298.15 K, 101320 kPa	–	1626.4
298.16 K, 75990 kPa	–	1531.6
303.1 K, 101 kPa	–	1108.5
303.13 K, 60790 kPa	–	1453.5
303.13 K, 91180 kPa	–	1575.6
303.13 K, 101320 kPa	–	1612.6
303.14 K, 30390 kPa	–	1306.4
303.14 K, 45590 kPa	–	1383.7
303.14 K, 75990 kPa	–	1517
303.15 K, 101 kPa	675.293	–
303.15 K, 15200 kPa	–	1217.8
308.08 K, 101 kPa	–	1087
308.12 K, 45590 kPa	–	1367.9
308.12 K, 75990 kPa	–	1502.7
308.12 K, 91180 kPa	–	1561.5
308.12 K, 101320 kPa	–	1599.1
308.13 K, 15200 kPa	–	1199.2
308.13 K, 30390 kPa	–	1289.3
308.13 K, 60790 kPa	–	1438.4
308.15 K, 101 kPa	671.015	–
313.06 K, 101 kPa	–	1065.6
313.1 K, 30390 kPa	–	1272.5
313.1 K, 45590 kPa	–	1352.5
313.1 K, 60790 kPa	–	1423.8
313.1 K, 75990 kPa	–	1488.7
313.1 K, 91180 kPa	–	1548.1
313.1 K, 101320 kPa	–	1585.7
313.11 K, 15200 kPa	–	1180.7
313.15 K, 101 kPa	666.684	–
318.15 K, 101 kPa	662.324	–
318.28 K, 15200 kPa	–	1161.8
318.28 K, 30390 kPa	–	1255.3
318.28 K, 45590 kPa	–	1336.5
318.28 K, 60790 kPa	–	1408.6
318.28 K, 75990 kPa	–	1474.4
318.28 K, 91180 kPa	–	1534.3
318.28 K, 101320 kPa	–	1572.3
318.35 K, 101 kPa	–	1043

CCCCCCCCCCCC [dodecane]
[2]
Conditions	mass density [kg/m3]	speed of sound [m/s]
292.87 K, 15200 kPa	–	1384.9
292.87 K, 30390 kPa	–	1457.9
292.87 K, 45590 kPa	–	1524.1
292.87 K, 60790 kPa	–	1584.5
292.87 K, 75990 kPa	–	1640.7
292.87 K, 91180 kPa	–	1692.8
292.87 K, 101320 kPa	–	1725.8
292.89 K, 101 kPa	–	1299.5
293.15 K, 101 kPa	748.921	–
298.15 K, 101 kPa	745.269	–
298.16 K, 101 kPa	–	1278.9
298.16 K, 15200 kPa	–	1365.9
298.16 K, 30390 kPa	–	1440
298.16 K, 45580 kPa	–	1507
298.16 K, 60790 kPa	–	1568
298.16 K, 75990 kPa	–	1625.2
298.16 K, 91180 kPa	–	1677.7
298.16 K, 101320 kPa	–	1711.1
303.14 K, 30390 kPa	–	1423.8
303.14 K, 45590 kPa	–	1491.4
303.14 K, 60790 kPa	–	1553.1
303.14 K, 75990 kPa	–	1610.9
303.14 K, 91180 kPa	–	1664.1
303.14 K, 101320 kPa	–	1697.4
303.15 K, 101 kPa	741.636	1259.3
303.15 K, 15200 kPa	–	1348.5
308.12 K, 101 kPa	–	1240.2
308.13 K, 75990 kPa	–	1596.8
308.13 K, 91180 kPa	–	1650.9
308.14 K, 15200 kPa	–	1331
308.14 K, 30390 kPa	–	1407.6
308.14 K, 45590 kPa	–	1476.3
308.14 K, 60790 kPa	–	1538.6
308.15 K, 101 kPa	738.031	–
313.1 K, 101 kPa	–	1221
313.15 K, 101 kPa	734.369	–
313.21 K, 15200 kPa	–	1313.4
313.21 K, 30390 kPa	–	1391.1
313.21 K, 45590 kPa	–	1460.8
313.21 K, 60790 kPa	–	1524.1
313.21 K, 75990 kPa	–	1582.5
313.21 K, 91180 kPa	–	1637.3
313.21 K, 101320 kPa	–	1671.3
318.15 K, 101 kPa	730.715	–
318.29 K, 15200 kPa	–	1296.2
318.29 K, 30390 kPa	–	1375
318.29 K, 45590 kPa	–	1445.5
318.29 K, 60790 kPa	–	1509.7
318.29 K, 91180 kPa	–	1624.1
318.29 K, 101320 kPa	–	1658.5
318.3 K, 75990 kPa	–	1568.8
318.39 K, 101 kPa	–	1200.9

Conditions	refractive index
[3]	1.4197

CCCCCCC [heptane]
[2]
Conditions	mass density [kg/m3]	speed of sound [m/s]
292.83 K, 101 kPa	–	1153.2
292.88 K, 45590 kPa	–	1417.7
292.88 K, 60790 kPa	–	1485.5
292.88 K, 75990 kPa	–	1547.2
292.88 K, 91180 kPa	–	1605
292.88 K, 101320 kPa	–	1641.2
292.89 K, 15200 kPa	–	1257
292.89 K, 30390 kPa	–	1342.4
293.15 K, 101 kPa	683.803	–
298.12 K, 101 kPa	–	1130.1
298.15 K, 101 kPa	679.548	–
298.15 K, 15200 kPa	–	1236.7
298.15 K, 30390 kPa	–	1323.7
298.15 K, 45590 kPa	–	1400.1
298.15 K, 60790 kPa	–	1469.1
298.15 K, 91180 kPa	–	1589.7
298.15 K, 101320 kPa	–	1626.4
298.16 K, 75990 kPa	–	1531.6
303.1 K, 101 kPa	–	1108.5
303.13 K, 60790 kPa	–	1453.5
303.13 K, 91180 kPa	–	1575.6
303.13 K, 101320 kPa	–	1612.6
303.14 K, 30390 kPa	–	1306.4
303.14 K, 45590 kPa	–	1383.7
303.14 K, 75990 kPa	–	1517
303.15 K, 101 kPa	675.293	–
303.15 K, 15200 kPa	–	1217.8
308.08 K, 101 kPa	–	1087
308.12 K, 45590 kPa	–	1367.9
308.12 K, 75990 kPa	–	1502.7
308.12 K, 91180 kPa	–	1561.5
308.12 K, 101320 kPa	–	1599.1
308.13 K, 15200 kPa	–	1199.2
308.13 K, 30390 kPa	–	1289.3
308.13 K, 60790 kPa	–	1438.4
308.15 K, 101 kPa	671.015	–
313.06 K, 101 kPa	–	1065.6
313.1 K, 30390 kPa	–	1272.5
313.1 K, 45590 kPa	–	1352.5
313.1 K, 60790 kPa	–	1423.8
313.1 K, 75990 kPa	–	1488.7
313.1 K, 91180 kPa	–	1548.1
313.1 K, 101320 kPa	–	1585.7
313.11 K, 15200 kPa	–	1180.7
313.15 K, 101 kPa	666.684	–
318.15 K, 101 kPa	662.324	–
318.28 K, 15200 kPa	–	1161.8
318.28 K, 30390 kPa	–	1255.3
318.28 K, 45590 kPa	–	1336.5
318.28 K, 60790 kPa	–	1408.6
318.28 K, 75990 kPa	–	1474.4
318.28 K, 91180 kPa	–	1534.3
318.28 K, 101320 kPa	–	1572.3
318.35 K, 101 kPa	–	1043

Conditions	refractive index
[3]	1.3853
